# Data as given in US20080113969A1, “COMBINATION THERAPY FOR THE TREATMENT OF PAIN” (priority 2006, published 2008).
# Entries after “also recorded” stand apart in the source; their conditions may differ.
# Legend:
# [1] = system: postoperative pain model in adult male rats; assay: Postincisional hypersensitivity model (paw incision, withdrawal threshold to von Frey filaments); type: in vivo, rat; conditions: intrathecal (i.t.), 24 h after paw incision
# Description: Animal preparation: Following Animal Care and Use Committee approval, an intrathecal (i.t.) catheter with tip in the lumbar space is inserted as previously described in adult male rats weighing 250 g (Yaksh and Rudy, Physiol Behav. 1976, 7, 1032-1036). One week following the insertion of the i.t. catheter, paw incision surgery is performed as previously described (Brennan et al., Pain 1996, 64, 493-501). Briefly, animals are anesthetized with halothane, and a 1-cm long incision is made in the plantar aspect of the left hind paw starting 0.5 cm from the edge of the heel toward the toe after sterile preparation with 70% ethanol. The plantaris muscle is elevated and incised longitudinally. The wound is closed with 2 mattress sutures of 5.0 silk. Subsequently, withdrawal threshold to von Frey filaments is determined one day after surgery (Chaplan et al., J. Neurosci. Methods, 1994, 53, 55-63). For all testing but pilot dose ranging studies, investigators are blinded to study drug administration. A cut off value of 22 g is used. […]
# Single drug injection: For single drug administration, a volume containing 5 μL drug is used, followed by 10 μL of saline. […] Dose response curves are first constructed, and ED40 values for single drugs are then determined at the time of peak effect.
# Drug interaction: For the combination of T-62 with morphine and NBQX, two injections are performed since the time of peak effect for morphine and NBQX is 30 min earlier than that of T-62 (T-62 is injected 30 min before drug injections). Paw withdrawal thresholds are determined before surgery, before drug injection, and 30, 60, 90, 120, 150, 180, and 210 min after the second drug injection. […] The dose response curves are then constructed for the combined drugs, and the ED40 values of the combined drugs are calculated at the time point of peak effect. […]
# Data analysis: Data are presented as mean ±S.E. Withdrawal threshold data are analyzed by two-way analysis of variance followed by Fisher's LSD test. […] Isobolograms are statistically analyzed by student T test.
# [2] = system: neuropathic pain model in male Sprague-Dawley rats; assay: Neuropathic pain model (Chung model, spinal nerve ligation, von Frey withdrawal threshold); type: in vivo, rat; conditions: Chung model of chronic neuropathic pain, FIG. 8
# Excerpt: Spinal Nerve Ligation: After Animal Care and Use Committee approval, male Sprague-Dawley rats (Harlan, Indianapolis, Ind., USA) weighing 180-200 g undergo anesthesia as previously described by Kim and Chung (Pain 1992, 50, 355-363). Briefly, under general anesthesia with inhalational halothane, the left L5 and L6 spinal nerves are identified through a small laminotomy and tightly ligated. Approximately one week later, an intrathecal catheter is placed under general anesthesia by insertion under direct vision of a polyethylene catheter through a small slit in the dura at the cisterna magnum, and advanced 8.5 cm such that the catheter tip resides in the lower lumbar intrathecal space. Animals are studied approximately one week later. Ligation of the lumbar spinal nerves results in a primarily unilateral increase in the sensitivity to light touch on the operated side. Sensitivity is assessed via application of calibrated von Frey filaments. The withdrawal threshold is determined using an up down method as previously described by Chaplan et al. (J. Neurosci. Methods 1994, 53, 55-63).
# Experimental Design: Animals receive, at least 4 weeks after spinal nerve ligation surgery, and at least 1 week after intrathecal catheter insertion, single injections of vehicle (β-cyclodextrin) or the drug substance, using a randomized and blinded protocol. Withdrawal thresholds are determined at intervals for up to 20 hr after injection.
# [3] = system: inflammatory and neuropathic pain; conditions: previously demonstrated (Li et al. 2003, Li et al. 2002, Pan et al. 2001); cited from earlier work
compound,measurement,setting,value
"NS(=O)(=O)c1cccc2c1c([N+](=O)[O-])cc1nc(O)c(O)nc12 [NBQX, 2,3-dihydroxy-6-nitro-7-sulfamoylbenzo(f)quinoxaline, reference compound]",anti-hypersensitivity effect (mechanical hypersensitivity),[1],reduces the mechanical hypersensitivity in a time and dose dependent manner
"Nc1sc2c(c1C(=O)c1ccc(Cl)cc1)CCCC2 [T-62, (2-amino-4,5,6,7-tetrahydrobenzo[b]thiophen-3-yl)(4-chlorophenyl)methanone]",anti-allodynic effect,[2],dose-dependent anti-allodynic effects
same,effect on inflammatory and neuropathic pain,[3],reduce inflammatory and neuropathic pain
same,anti-hypersensitivity effect (mechanical hypersensitivity),[1],reduced mechanical hypersensitivity in a time dependent manner; also recorded: modest effect
Nc1sc2c(c1C(=O)c1cccc3ccccc13)CCC2 [formula (Ic)],anti-allodynic effect,[2],dose-dependent anti-allodynic effects
same,relative potency among the three enhancers,[2],most potent enhancer of the three agents
Nc1sc2c(c1C(=O)c1ccccc1)CCS2 [formula (Ib)],anti-allodynic effect,[2],dose-dependent anti-allodynic effects
"CN1CC[C@]23c4c5ccc(O)c4O[C@H]2[C@@H](O)C=C[C@H]3[C@H]1C5 [Morphine, morphine, reference compound]",anti-hypersensitivity effect (mechanical hypersensitivity),[1],reduces mechanical hypersensitivity in a time and dose dependent manner
